Test results: patent US7829754B2, “Method of cleaning heavy metals-containing soil” (Chubu Electric Power Co., Inc., priority 2004, dated 2010)
Where two headings read alike, the source gives them in different places.

Experiments:
[1] = type: physicochemical
Procedure: <Experiment 1. Test of Comparing Lead Dissolving Out Ability of Chelating Agent>
In order to study a kind of a chelating agent to be added to a contaminated soil, the lead dissolving out abilities of 26 types of chelating agents (chelate reagents) were compared (FIG. 2).
2) Chelating agent: Each chelating agent of 100 mmol·dm^−3 and pH 5.8 was prepared.
3) Five grams of 1) the subject soil and 50 ml of 2) the chelating agent were put into to a 100 ml vessel, and shaken (200 times/min) at 20° C. for 6 hours. Repeated cycle was 3.
4) For comparison, a contrast section was prepared, in which desalted water was added instead of the chelating agent in the 3).
5) After shaking, the sample after filtration was centrifuged at 15000 rpm for 5 minutes, and the supernatant liquid was further centrifuged again under the same condition.
6) From the separated supernatant liquid, a lead concentration was measured with an inductively coupled high frequency plasma spectrometry (ICP) device.

Fagopyrum esculentum [2] = details: for Leaf dry weight / Stem dry weight / Stem lead concentration / Terrestrial dry weight / Terrestrial part lead accumulation amount / Terrestrial part lead concentration / Terrestrial lead accumulated amount, fold of EDTA-2Na at the same concentration / Terrestrial lead accumulated amount, fold of contrast section: soil B; for Leaf lead concentration: soil B (lead 13032 mg/kg), added one week before harvesting; for addition effect on lead concentration in stems / addition effect on lead concentration in leaves: 10, 20 mmol/kg soil; for addition effect on lead concentration in stems: contrast section 2043 mg/kg; for addition effect on lead concentration in leaves: contrast section 7971 mg/kg
Procedure: A lead concentration in a soil or a plant body was analyzed using ICP-AES (inductively coupled plasma-atomic emission spectrometry) regarding a sample obtained by adding nitric acid and degrading this with a microwave.
A cultivating experiment was conducted as follows: in which Fagopyrum esculentum and Brassica juncca were cultivated in a lead-containing soil filled in a Wagnel pot, a chelating agent was further added to the soil, and a difference in a lead accumulating amount depending on the cultivating condition was examined.
In addition, considering influence on plants and environment such as a salt concentration damage, 1, 5, 10 and 20 mmol kg^−1 soil of chemical reagents were adopted as an addition concentration, and 300 ml/pot (soil 3 kg) was provided as an addition amount.
1) Test plant: Fagopyrum esculentum, trade name (Milkyway), Brassica juncea
2) Test soil: Soil B (sampled from an old firing range site, soil lead concentration 13032 mg/kg), contrast sample (mountain sand in Gifu Prefecture of Japan, soil lead concentration 21 mg/kg)

Fagopyrum esculentum [3] = test: Fagopyrum esculentum growth situation after addition of chelating agent
Procedure: 3) The soil B (3 kg) and the contrast section soil (4.3 kg) which had been passed through a sieve (2 mm) were mixed with urea (N: 69 mg/kg soil), calcium superphosphate (P: 75 mg/kg soil), potassium chloride (K: 72 mg/kg soil), and magnesia lime (Mg: 67 mg/kg soil), and sufficiently stirred. 4) The test soil was filled into a Wagnel pot (1/5000a), and a plant was seeded (3 pits/pot, 3 grains/pit). 5) Four to five days after germination, the plant was thinned out to 3 individuals/pot. 6) Cultivation in a gross chamber (Environmental Condition) Temperature: 25° C.×12 h (8:00-20:00), 20° C.×12 h (20:00-8:00) Humidity: 60% Illumination: light condition (8:00-20:00), dark condition (20:00-8:00) Illuminance: 98001×, 180μ mmol˜m^−2·s^−1 7) Aspersion was performed at 100 ml/pot every day. 8) During a test term, a position of a pot was changed four times. 9) Individuals which were about to fall were induced by a support post. 10) One week before harvesting, a chelating agent at each concentration was added to the soil B. An addition amount was 300 ml/pot, and the chelating agent was carefully added to a surface of the soil so that the chelating agent was not contacted with the plant. On the day before addition of the chelating agent and on the day of addition, aspersion was not performed. […] 12) Repeated cycles in all sections were 3 (3 pots/test section).

[4] = chelating agent 100 mmol·dm^−3, pH 5.8, Soil A, shaken at 20° C. for 6 hours, FIG. 2
[5] = chelating agent 10 mmol/kg soil
[6] = chelating agent 20 mmol/kg soil
[7] = per unit area, calculated, chelating agent 1 mmol/kg soil
[8] = per unit area, calculated, chelating agent 5 mmol/kg soil
[9] = per unit area, calculated, chelating agent 10 mmol/kg soil
[10] = per unit area, calculated, chelating agent 20 mmol/kg soil
[11] = four days after addition, 1 mmol/kg soil
[12] = four days after addition, 5 mmol/kg soil
[13] = four days after addition, 10 mmol/kg soil
[14] = four days after addition, 20 mmol/kg soil
[15] = two days after addition, 20 mmol/kg soil

## O=C(O)CC(O)(CC(=O)O)C(=O)O [citric acid]
[1]; pH 5.8
  lead dissolving out ability: high lead dissolving out ability

## O=C([O-])CC(O)(CC(=O)[O-])C(=O)[O-].[Na+].[Na+].[Na+] [Sodium citrate, sodium citrate]
[1]; [4]
  lead dissolving out ability: not so much higher than the aforementioned biodegradable chelating agents
[1]; pH 5.8
  lead dissolving out ability: high lead dissolving out ability
Fagopyrum esculentum [2]; chelating agent 1 mmol/kg soil
  Leaf dry weight: 0.9090 g/plant
  Stem dry weight: 1.9892 g/plant
  Stem lead concentration: 1815 mg/kg
  Terrestrial dry weight: 2.8982 g/plant
  Terrestrial part lead accumulation amount: 0.0121 g/plant
  Terrestrial part lead concentration: 4169 mg/kg
  Leaf lead concentration: 9320 mg/kg
Fagopyrum esculentum [2]; chelating agent 5 mmol/kg soil
  Leaf dry weight: 1.0308 g/plant
  Stem dry weight: 1.6837 g/plant
  Stem lead concentration: 1671 mg/kg
  Terrestrial dry weight: 2.7145 g/plant
  Terrestrial part lead accumulation amount: 0.0101 g/plant
  Terrestrial part lead concentration: 3732 mg/kg
  Leaf lead concentration: 7099 mg/kg
Fagopyrum esculentum [2]; [5]
  Leaf dry weight: 0.7356 g/plant
  Stem dry weight: 1.7669 g/plant
  Stem lead concentration: 1524 mg/kg
  Terrestrial dry weight: 2.5025 g/plant
  Terrestrial part lead accumulation amount: 0.0080 g/plant
  Terrestrial part lead concentration: 3191 mg/kg
  Leaf lead concentration: 7195 mg/kg
Fagopyrum esculentum [2]; [6]
  Leaf dry weight: 0.8797 g/plant
  Stem dry weight: 1.9099 g/plant
  Stem lead concentration: 2286 mg/kg
  Terrestrial dry weight: 2.7896 g/plant
  Terrestrial part lead accumulation amount: 0.0134 g/plant
  Terrestrial part lead concentration: 4806 mg/kg
  Leaf lead concentration: 10270 mg/kg
Fagopyrum esculentum [2]; [7]
  Terrestrial part lead accumulation amount: 1.82 g/m^2
Fagopyrum esculentum [2]; [8]
  Terrestrial part lead accumulation amount: 1.52 g/m^2
Fagopyrum esculentum [2]; [9]
  Terrestrial part lead accumulation amount: 1.20 g/m^2
Fagopyrum esculentum [2]; [10]
  Terrestrial part lead accumulation amount: 2.01 g/m^2
Fagopyrum esculentum [3]; [11]
  Discoloration of leaf (number of individuals for which symptom was observed): 5
Fagopyrum esculentum [3]; [12]
  Discoloration of leaf (number of individuals for which symptom was observed): 2
Fagopyrum esculentum [3]; [13]
  Discoloration of leaf (number of individuals for which symptom was observed): 4
  Leaf drop (number of individuals for which symptom was observed): 2
  Wilting of leaf (number of individuals for which symptom was observed): 4
Fagopyrum esculentum [3]; [14]
  Discoloration of leaf (number of individuals for which symptom was observed): 5
  Wilting of leaf (number of individuals for which symptom was observed): 6

## N[C@@H](CS)C(=O)O [L-cysteine]
[1]; [4]
  lead dissolving out ability: high lead dissolving out ability

## disodium ethylenediamine tetraacetate [EDTA · 2Na, reference compound]
[1]; [4]
  lead dissolving out ability: high lead dissolving out ability
Fagopyrum esculentum [2]
  addition effect on lead concentration in stems: high addition effect
  addition effect on lead concentration in leaves: high addition effect
Fagopyrum esculentum [2]; chelating agent 1 mmol/kg soil
  Leaf dry weight: 0.9799 g/plant
  Stem dry weight: 1.7240 g/plant
  Stem lead concentration: 1791 mg/kg
  Terrestrial dry weight: 2.7039 g/plant
  Terrestrial part lead accumulation amount: 0.0106 g/plant
  Terrestrial part lead concentration: 3926 mg/kg
  Leaf lead concentration: 7683 mg/kg
Fagopyrum esculentum [2]; chelating agent 5 mmol/kg soil
  Leaf dry weight: 1.0307 g/plant
  Stem dry weight: 2.0750 g/plant
  Stem lead concentration: 2288 mg/kg
  Terrestrial dry weight: 3.1057 g/plant
  Terrestrial part lead accumulation amount: 0.0157 g/plant
  Terrestrial part lead concentration: 5045 mg/kg
  Leaf lead concentration: 10595 mg/kg
Fagopyrum esculentum [2]; [5]
  Leaf dry weight: 0.9617 g/plant
  Stem dry weight: 1.8899 g/plant
  Stem lead concentration: 3376 mg/kg
  Terrestrial dry weight: 2.8516 g/plant
  Terrestrial part lead accumulation amount: 0.0244 g/plant
  Terrestrial part lead concentration: 8564 mg/kg
  Leaf lead concentration: 18758 mg/kg
Fagopyrum esculentum [2]; [6]
  Leaf dry weight: 0.6389 g/plant
  Stem dry weight: 1.4969 g/plant
  Stem lead concentration: 8947 mg/kg
  Terrestrial dry weight: 2.1358 g/plant
  Terrestrial part lead accumulation amount: 0.0328 g/plant
  Terrestrial part lead concentration: 15335 mg/kg
  Leaf lead concentration: 30303 mg/kg
Fagopyrum esculentum [2]; [7]
  Terrestrial part lead accumulation amount: 1.59 g/m^2
Fagopyrum esculentum [2]; [8]
  Terrestrial part lead accumulation amount: 2.36 g/m^2
Fagopyrum esculentum [2]; [9]
  Terrestrial part lead accumulation amount: 3.66 g/m^2
Fagopyrum esculentum [2]; [10]
  Terrestrial part lead accumulation amount: 4.92 g/m^2
Fagopyrum esculentum [3]; [11]
  Discoloration of leaf (number of individuals for which symptom was observed): 3
Fagopyrum esculentum [3]; [12]
  Discoloration of leaf (number of individuals for which symptom was observed): 4
  Leaf drop (number of individuals for which symptom was observed): 1
  Wilting of leaf (number of individuals for which symptom was observed): 1
Fagopyrum esculentum [3]; [13]
  Discoloration of leaf (number of individuals for which symptom was observed): 6
  Wilting of leaf (number of individuals for which symptom was observed): 2
Fagopyrum esculentum [3]; [14]
  Discoloration of flower (number of individuals for which symptom was observed): 9
  Discoloration of leaf (number of individuals for which symptom was observed): 9
  Leaf drop (number of individuals for which symptom was observed): 2
  Wilting of leaf (number of individuals for which symptom was observed): 9
  yellow leaves, spotting and discoloration of leaves, and discoloration of a flower: confirmed in all individuals
Fagopyrum esculentum [3]; [15]
  discoloration of leaves: discoloration of leaves was observed

## tetrasodium L-glutamic acid diacetate [GLDA·4Na]
[1]; [4]
  lead dissolving out ability: high lead dissolving out ability

## O=C([O-])CC(NCCNC(CC(=O)O)C(=O)[O-])C(=O)[O-].[Na+].[Na+].[Na+] (stereo not shown) [EDDS·3Na, disodium ethylenediamine succinate]
[1]; pH 5.8
  lead dissolving out ability: high lead dissolving out ability

## CC(C(=O)[O-])N(CC(=O)[O-])CC(=O)[O-].[Na+].[Na+].[Na+] (stereo not shown) [MGDA · 3Na, trisodium methylglycine diacetate]
[1]; [4]
  lead dissolving out ability: high lead dissolving out ability
Fagopyrum esculentum [2]; 10 mmol/kg soil
  Terrestrial lead accumulated amount, fold of EDTA-2Na at the same concentration: 1.6 fold
  Terrestrial lead accumulated amount, fold of contrast section: 3.4 fold
Fagopyrum esculentum [2]; 20 mmol/kg soil
  Terrestrial lead accumulated amount, fold of EDTA-2Na at the same concentration: 1.3 fold
  Terrestrial lead accumulated amount, fold of contrast section: 3.7 fold
Fagopyrum esculentum [2]
  addition effect on lead concentration in stems: high addition effect
  addition effect on lead concentration in leaves: high addition effect
Fagopyrum esculentum [2]; chelating agent 1 mmol/kg soil
  Leaf dry weight: 0.9422 g/plant
  Stem dry weight: 1.9496 g/plant
  Stem lead concentration: 2310 mg/kg
  Terrestrial dry weight: 2.8918 g/plant
  Terrestrial part lead accumulation amount: 0.0130 g/plant
  Terrestrial part lead concentration: 4484 mg/kg
  Leaf lead concentration: 8981 mg/kg
Fagopyrum esculentum [2]; chelating agent 5 mmol/kg soil
  Leaf dry weight: 0.8863 g/plant
  Stem dry weight: 1.8543 g/plant
  Stem lead concentration: 2384 mg/kg
  Terrestrial dry weight: 2.7406 g/plant
  Terrestrial part lead accumulation amount: 0.0156 g/plant
  Terrestrial part lead concentration: 5690 mg/kg
  Leaf lead concentration: 12607 mg/kg
Fagopyrum esculentum [2]; [5]
  Leaf dry weight: 0.7343 g/plant
  Stem dry weight: 1.5023 g/plant
  Stem lead concentration: 10098 mg/kg
  Terrestrial dry weight: 2.2366 g/plant
  Terrestrial part lead accumulation amount: 0.0399 g/plant
  Terrestrial part lead concentration: 17858 mg/kg
  Leaf lead concentration: 33735 mg/kg
Fagopyrum esculentum [2]; [6]
  Leaf dry weight: 0.5582 g/plant
  Stem dry weight: 1.3716 g/plant
  Stem lead concentration: 16437 mg/kg
  Terrestrial dry weight: 1.9298 g/plant
  Terrestrial part lead accumulation amount: 0.0441 g/plant
  Terrestrial part lead concentration: 22848 mg/kg
  Leaf lead concentration: 38601 mg/kg
Fagopyrum esculentum [2]; [7]
  Terrestrial part lead accumulation amount: 1.95 g/m^2
Fagopyrum esculentum [2]; [8]
  Terrestrial part lead accumulation amount: 2.34 g/m^2
Fagopyrum esculentum [2]; [9]
  Terrestrial part lead accumulation amount: 5.99 g/m^2
Fagopyrum esculentum [2]; [10]
  Terrestrial part lead accumulation amount: 6.62 g/m^2
Fagopyrum esculentum [3]; [11]
  Discoloration of leaf (number of individuals for which symptom was observed): 3
  Leaf drop (number of individuals for which symptom was observed): 1
  Wilting of leaf (number of individuals for which symptom was observed): 1
Fagopyrum esculentum [3]; [12]
  Discoloration of leaf (number of individuals for which symptom was observed): 3
  Wilting of leaf (number of individuals for which symptom was observed): 1
Fagopyrum esculentum [3]; [13]
  Discoloration of flower (number of individuals for which symptom was observed): 5
  Discoloration of leaf (number of individuals for which symptom was observed): 2
  Leaf drop (number of individuals for which symptom was observed): 2
  Wilting of leaf (number of individuals for which symptom was observed): 6
Fagopyrum esculentum [3]; [14]
  Discoloration of flower (number of individuals for which symptom was observed): 9
  Discoloration of leaf (number of individuals for which symptom was observed): 9
  Leaf drop (number of individuals for which symptom was observed): 7
  Wilting of leaf (number of individuals for which symptom was observed): 9
  yellow leaves, spotting and discoloration of leaves, and discoloration of a flower: confirmed in all individuals
Fagopyrum esculentum [3]; four days after addition, 20 mmol/kg soil, in words
  leaf drop: observed in almost all individuals
Fagopyrum esculentum [3]; [15]
  discoloration of leaves: discoloration of leaves was observed
  leaf drop: confirmed partially
